Test system: COMI cells
Format: cell-based, Human

CC[C@@]1(O)C(=O)OCc2c1cc1n(c2=O)Cc2cc3ccccc3nc2-1 [camptothecin]
p53 level: massively upregulate p53

Source: PMC10051910 (Marine Drugs, 2023)
